Columns and labels:
Format in all cases: in vivo
[1] = system: Aphis gossypii; experiment: Test Example 2: foot drench of cucumber seedling on urethane mat, Aphis gossypii; details: soil, 168 h, 5 ml drench at foot of cucumber seedling on urethane mat, inoculated one day after treatment, checked seven days after
Protocol: The formulations of the present active compounds (4), (5), (8), (9), (11), (12), (14), (15), (17), (20), (35) to (45), (48) to (51), (54) to (56), (206), (209) and (211) to (213) obtained by Formulation Example 5 were diluted with water so that the active ingredient concentration was 500 ppm, to prepare diluted solutions for test. Separately, a cucumber seedling (second true leaf spreading stage) planted on a urethane mat was drenched at its foot with each 5 ml of the diluted solutions, and one day after treatment, the cucumber leaf surface was inoculated with 30 Aphis gossypii (whole stage). Further seven days after, the number of insect of living Aphis gossypii […] on the leaves of this cucumber was checked, and the control value was calculated according to the following formula. Control value (%)={1-(Cb×Tai)/(Cai×Tb)}×100 Letters in the formula represent the following meanings. Cb: the number of insect before treatment on non-treated district Cai: the number of insect in observation on non-treated district Tb: the number of insect before treatment on treated district Tai: the number of insect in observation on treated district

[2] = system: Aphis gossypii; experiment: Test Example 4: foot drench of cucumber seedling in plastic cup, inoculation after 7 days, Aphis gossypii; details: soil, 144 h, 5 ml drench at foot of cucumber seedling in plastic cup, kept 7 days at 25° C., inoculated, further 6 days
Protocol: The formulations of the present active compounds (3) to (7), (17), (19), (20), (22), (29) to (31), (35) to (37), (39), (41) to (45), (47) to (56), (101), (106), (121) to (123), (128), (131), (137), (139), (143), (145), (147), (211) to (213), (216) and (217) obtained by Formulation Example 5 were diluted with water so that the active ingredient concentration was 500 ppm, to prepare diluted solutions for test. Separately, a cucumber seedling (second true leaf spreading stage) planted on a plastic cup was drenched at its foot with each 5 ml of the diluted solutions, and kept in a greenhouse of 25° C. for 7 days. The cucumber leaf surface was inoculated with 30 Aphis gossypii (whole stage), and further kept in the greenhouse for 6 days, then, the number of insect of living Aphis gossypii […] on the leaves of this cucumber was checked, and the control value was calculated according to the following formula. Control value (%)={1-(Cb×Tai)/(Cai×Tb)}×100 Letters in the formula represent the following meanings. Cb: the number of insect before treatment on non-treated district Cai: the number of insect in observation on non-treated district Tb: the number of insect before treatment on treated district Tai: the number of insect in observation on treated district

[3] = system: Nilaparvata lugens; experiment: Test Example 7: foot drench of rice seedling, thirty first instar larvae of Nilaparvata lugens; details: soil, 144 h, 5 ml drench at foot of rice seedling, kept 7 days, thirty first instar larvae released, further 6 days
Protocol: The formulations of the present active compounds (11), (13) to (15), (17), (23), (26), (35) to (41), (43) to (45), (48) to (51), (54), (55), (209), (211) and (212) obtained by Formulation Example 5 were diluted with water so that the active ingredient concentration was 500 ppm, to prepare diluted solutions for test. Separately, a rice seedling (2 weeks after sowing, second leaf spreading stage) planted on a plastic cup was drenched at its foot with each 5 ml of the diluted solutions, and kept in a greenhouse of 25° C. for 7 days. Thirty first instar larvae of Nilaparvata lugens were released, and further kept in the greenhouse for 6 days. The number of insect of living Nilaparvata lugens […] on rice was checked, and the control value was calculated according to the following formula. Control value (%)={1-(Cb×Tai)/(Cai×Tb)}×100 Letters in the formula represent the following meanings. Cb: the number of insect before treatment on non-treated district Cai: the number of insect in observation on non-treated district Tb: the number of insect before treatment on treated district Tai: the number of insect in observation on treated district

[4] = system: Bemisia tabaci; experiment: Test Example 5: spray on tomato seedling with Bemisia tabaci larvae; details: 168 h, 10 ml/cup sprayed on tomato seedling with hatching Bemisia tabaci larvae, 7 days at 25° C.
Protocol: The formulations of the present active compounds (1) to (5), (7) to (15), (17) to (21), (25), (28) to (45), (48) to (56), (101) to (103), (106), (107), (117), (118), (121) to (145), (147) to (151), (153) to (155), (204), (206), (208), (209), (211) to (213) and (216) to (221) obtained by Formulation Example 5 were diluted with water so that the active ingredient concentration was 500 ppm, to prepare spray solutions for test. Separately, on a tomato seedling planted on a plastic cup, Bemisia tabaci adult insects were released and allowed to lay eggs for about 24 hours. The tomato seedling was kept in a greenhouse […], and the above-described spray solutions for test were sprayed at a proportion of 10 ml/cup on the condition of hatching of larvae from the laid eggs, and kept in a greenhouse of 25° C. for 7 days. The number of living larvae on the tomato leaves was checked, and the control value was calculated according to the following formula. Control value (%)={1−(Cb×Tai)/(Cai×Tb)}×100 Letters in the formula represent the following meanings. Cb: the number of insect before treatment on non-treated district Cai: the number of insect in observation on non-treated district Tb: the number of insect before treatment on treated district Tai: the number of insect in observation on treated district

[5] = system: Aphis gossypii; experiment: Test Example 3: root immersion of cucumber seedling, Aphis gossypii; details: 168 h, cucumber root part immersed in 5 ml, inoculated one day after treatment, checked seven days after
Protocol: The formulations of the present active compounds (18), (19), (21), (22), (24), (25), (28), (31) to (34), (46), (47), (52), (53), (101) to (104), (106) to (108), (112) to (114), (117), (118), (122), (123), (126), (128), (129), (133), (134), (138), (144), (153) to (155) and (157) obtained by Formulation Example 5 were diluted with water so that the active ingredient concentration was 500 ppm, to prepare diluted solutions for test. A root part of a cucumber seedling (first true leaf spreading stage) from which soil had been washed off was immersed in 5 ml of this diluted solution, and one day after treatment, the cucumber leaf surface was inoculated with 30 Aphis gossypii (whole stage). Further seven days after, the number of insect of living Aphis gossypii […] on the leaves of this cucumber was checked, and the control value was calculated according to the following formula. Control value (%)={1-(Cb×Tai)/(Cai×Tb)}×100 Letters in the formula represent the following meanings. Cb: the number of insect before treatment on non-treated district Cai: the number of insect in observation on non-treated district Tb: the number of insect before treatment on treated district Tai: the number of insect in observation on treated district

[6] = system: Nilaparvata lugens; experiment: Test Example 8: spray on rice seedling, 20 first instar larvae of Nilaparvata lugens; details: 144 h, 10 ml sprayed on rice seedling, 20 first instar larvae released, 6 days at 25° C.
Protocol: The formulations of the present active compounds (6), (7), (18), (21), (24), (25), (28) to (30), (32), (46), (52), (101) to (103), (105) to (107), (111), (112), (115), (119) to (124), (126) to (130), (133) to (135), (139), (142), (144) to (146), (149) to (151), (153), (154), (216) and (217) obtained by Formulation Example 5 were diluted with water so that the active ingredient concentration was 500 ppm, to prepare spray solutions for test. Separately, on a rice seedling (2 weeks after sowing, second leaf spreading stage) planted on a plastic cup, the drug solutions for test prepared as described above were sprayed each in an amount of 10 ml. After drying of the drug solution sprayed on rice, 20 first instar larvae of Nilaparvata lugens were released, and kept in a greenhouse of 25° C. for 6 days. Thereafter, the number of Nilaparvata lugens […] on rice was checked, and the control value was calculated according to the following formula. Control value (%)={1-(Cb×Tai)/(Cai×Tb)}×100 Letters in the formula represent the following meanings. Cb: the number of insect before treatment on non-treated district Cai: the number of insect in observation on non-treated district Tb: the number of insect before treatment on treated district Tai: the number of insect in observation on treated district

[7] = system: Nilaparvata lugens; experiment: Test Example 9: foot drench of rice seedling, twenty first instar larvae of Nilaparvata lugens; details: soil, 144 h, 5 ml drench at foot of rice seedling, kept 7 days, twenty first instar larvae released, further 6 days
Protocol: The formulations of the present active compounds (6), (7), (18), (22), (25), (30), (33), (46), (47), (53), (101) to (103), (106), (121) to (124), (126) to (128), (135), (139), (216) and (217) obtained by Formulation Example 5 were diluted with water so that the active ingredient concentration was 500 ppm, to prepare diluted solutions for test. Separately, a rice seedling (2 weeks after sowing, second leaf spreading stage) planted on a plastic cup was drenched at its foot with each 5 ml of the diluted solutions, and kept in a greenhouse of 25° C. for 7 days. Twenty first instar larvae of Nilaparvata lugens were released, and further kept in the greenhouse for 6 days, then, the number of insect of living Nilaparvata lugens […] on rice was checked, and the control value was calculated according to the following formula. Control value (%)={1-(Cb×Tai)/(Cai×Tb)}×100 Letters in the formula represent the following meanings. Cb: the number of insect before treatment on non-treated district Cai: the number of insect in observation on non-treated district Tb: the number of insect before treatment on treated district Tai: the number of insect in observation on treated district

Structure (SMILES)	pest or weed control at 500 ppm [3] [%]	pest or weed control at 500 ppm [4] [%]	also measured
CSc1cnccc1-c1nc2cc(C(F)(F)F)ccc2n1C [present active compound 17, 1-methyl-2-(3-methylthiopyridin-4-yl)-5-trifluoromethyl-1H-benzimidazole]	≥ 90		pest or weed control at 500 ppm [1]: ≥ 90%; pest or weed control at 500 ppm [2]: ≥ 90%
Cn1c(-c2ccncc2C(F)(F)F)nc2cc(C(F)(F)F)cnc21 [present active compound 212, 3-methyl-6-trifluoromethyl-2-(3-trifluoromethylpyridin-4-yl-)-3H-imidazo[4,5-b]pyridine]	≥ 90		
CC(C)Sc1cnccc1-c1nc2cc(C(F)(F)F)ccc2n1C [present active compound 23, 2-(3-isopropylthiopyridin-4-yl)-1-methyl-5-trifluoromethyl-1H-benzimidazole]	≥ 90		
CNS(=O)(=O)c1cnccc1-c1nc2cc(C(F)(F)F)cnc2n1C [present active compound 117]		≥ 90	pest or weed control at 500 ppm [5]: ≥ 90%
CC(C)Oc1cnccc1-c1nc2cc(C(F)(F)F)ccc2n1C [present active compound 11, 2-(3-isopropoxypyridin-4-yl)-1-methyl-5-trifluoromethyl-1H-benzimidazole]	≥ 90		pest or weed control at 500 ppm [1]: ≥ 90%
Cn1c(-c2ccncc2SC(C)(C)C)nc2cc(C(F)(F)F)cnc21 [present active compound 107]		≥ 90	
Cn1c(-c2ccnc(F)c2)nc2cc(C(F)(F)F)ccc21 [present active compound 26, 2-(2-fluoropyridin-4-yl)-1-methyl-5-trifluoromethyl-1H-benzimidazole]	≥ 90		
Cn1c(-c2ccncc2C#N)nc2cc(C(F)(F)F)cnc21 [present active compound 118]		≥ 90	pest or weed control at 500 ppm [5]: ≥ 90%
Cn1c(-c2cc[n+]([O-])cc2F)nc2cc(C(F)(F)F)ccc21 [present active compound 25, 2-(3-fluoro-1-oxypyridin-4-yl)-1-methyl-5-trifluoromethyl-1H-benzimidazole]		≥ 90	pest or weed control at 500 ppm [6]: ≥ 90%; pest or weed control at 500 ppm [7]: ≥ 90%; pest or weed control at 500 ppm [5]: ≥ 90%
Cn1c(-c2ccncc2SCC(F)(F)F)nc2cc(C(F)(F)F)cnc21 [present active compound 54, 3-methyl-2-[3-(2,2,2-trifluoroethylthio)pyridin-4-yl]-6-trifluoromethyl-3H-imidazo[4,5-b]pyridine]	≥ 90		
C#Cc1cnccc1-c1nc2cc(C(F)(F)F)cnc2n1C [present active compound 211, 2-(3-ethynylpyridin-4-yl-)-3-methyl-6-trifluoromethyl-3H-imidazo[4,5-b]pyridine]	≥ 90		
CCn1c(-c2ccncc2)nc2ccc(C(F)(F)F)cc21 [present active compound 204, 1-ethyl-2-pyridin-4-yl-6-trifluoromethyl-1H-benzimidazole]		≥ 90	
Cn1c(-c2cc[n+]([O-])cc2)nc2cc(C(F)(F)F)cnc21 [present active compound 55, 3-methyl-2-(1-oxypyridin-4-yl)-6-trifluoromethyl-3H-imidazo[4,5-b]pyridine]	≥ 90		

Reference: patent US8461181B2, “Fused heterocyclic compound and use thereof” (Sumitomo Chemical Company, Ltd., priority 2009, dated 2013)
